Results from ChEMBL document CHEMBL1201862, “PubChem BioAssay data set” (2004).
Activity calls are given as the source filed them.

Tests used:
[1] = HPDE-C7 pancreatic duct cell viability loss – fluorescence, HTS (AID 430); format: functional, cell-based; details: Homo sapiens
[2] = viability loss of HPDE-C7K cells – cell-based, fluorescence, HTS, primary screen (AID 431); format: functional; details: Homo sapiens
[3] = IC50 of Artemis nuclease activity blockers – biochemical, fluorescence intensity, dose response (AID 720701); format: functional;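 further: Artemis endonuclease enzyme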
[4] = target: RNA-editing ligase 1, mitochondrial (Trypanosoma brucei brucei, UniProt P86926); assay: inhibition of trypanosome RNA editing ligase – biochemical, fluorescence, Trypanosoma brucei, dose response (AID 1117295); format: functional
[5] = Late stage results for the probe development effort to identify inhibitors of Plasmodium falciparum gametocytes: Luminescence-based cell-based high throughput dose response assay to identify inhibitors of viability of late stage Plasmodium falciparum gametocytes.; format: functional
[6] = P. falciparum Dd2 growth inhibitors, dose response, SYBR Green, cherry-picked samples (AID 1159567); format: functional, cell-based
[7] = toxicity to human hepatoma HepG2 cells – cell-based, cherry-picked samples, cytotoxicity control, dose response (AID 1159577); format: functional
[8] = Late stage assay provider results from the probe development effort to identify inhibitors of the Plasmodium falciparum M18 Aspartyl Aminopeptidase (M18AAP): radiolabel-based cell-based dose response assay to identify compounds that inhibit P. falciparum growth in RBCs, Set 2..; format: functional
Protein skinhead-1 = target: T1, Protein skinhead-1 (Caenorhabditis elegans, UniProt P34707); format: functional
T1 sequence (P34707 whole entry): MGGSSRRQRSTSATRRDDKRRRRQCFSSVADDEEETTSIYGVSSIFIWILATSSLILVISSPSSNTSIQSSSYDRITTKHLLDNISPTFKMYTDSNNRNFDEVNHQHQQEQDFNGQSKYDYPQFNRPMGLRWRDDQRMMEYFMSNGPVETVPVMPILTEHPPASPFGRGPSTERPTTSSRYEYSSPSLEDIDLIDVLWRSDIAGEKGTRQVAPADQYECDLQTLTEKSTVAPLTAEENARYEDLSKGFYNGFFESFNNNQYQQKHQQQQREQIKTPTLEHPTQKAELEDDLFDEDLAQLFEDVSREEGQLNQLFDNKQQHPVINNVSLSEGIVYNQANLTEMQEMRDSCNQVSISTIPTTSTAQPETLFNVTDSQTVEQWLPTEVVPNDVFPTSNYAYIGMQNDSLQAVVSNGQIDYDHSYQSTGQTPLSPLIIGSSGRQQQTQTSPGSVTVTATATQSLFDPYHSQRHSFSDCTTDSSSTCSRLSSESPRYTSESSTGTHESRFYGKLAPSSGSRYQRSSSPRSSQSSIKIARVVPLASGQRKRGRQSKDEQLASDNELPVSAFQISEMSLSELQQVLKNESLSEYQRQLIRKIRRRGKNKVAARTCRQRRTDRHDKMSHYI

[9] = target: T2, DNA repair protein RAD52 homolog (Homo sapiens, UniProt P43351); format: functional, biochemical
T2 sequence (P43351 whole entry): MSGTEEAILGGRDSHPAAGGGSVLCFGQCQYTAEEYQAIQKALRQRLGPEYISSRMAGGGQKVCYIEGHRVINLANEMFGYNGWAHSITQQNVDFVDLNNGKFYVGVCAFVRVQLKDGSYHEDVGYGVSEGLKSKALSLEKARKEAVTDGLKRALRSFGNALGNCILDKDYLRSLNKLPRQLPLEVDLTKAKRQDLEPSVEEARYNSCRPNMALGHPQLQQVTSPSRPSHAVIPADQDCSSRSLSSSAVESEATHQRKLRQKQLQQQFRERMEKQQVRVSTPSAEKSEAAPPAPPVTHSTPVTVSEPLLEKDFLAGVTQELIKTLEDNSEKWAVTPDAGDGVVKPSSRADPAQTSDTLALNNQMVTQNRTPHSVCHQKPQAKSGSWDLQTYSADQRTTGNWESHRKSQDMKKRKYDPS

Caspase-6 = Caspase-6 (Homo sapiens, UniProt P55212); assay: inhibition of CASP6 peptide cleavage – biochemical, VEID-R110 fluorescence, cherry-pick, dose response (AID 720632)
[10] = target: T3, Histone-lysine N-methyltransferase NSD2 (Homo sapiens, UniProt O96028); format: biochemical
T3 sequence (O96028 whole entry): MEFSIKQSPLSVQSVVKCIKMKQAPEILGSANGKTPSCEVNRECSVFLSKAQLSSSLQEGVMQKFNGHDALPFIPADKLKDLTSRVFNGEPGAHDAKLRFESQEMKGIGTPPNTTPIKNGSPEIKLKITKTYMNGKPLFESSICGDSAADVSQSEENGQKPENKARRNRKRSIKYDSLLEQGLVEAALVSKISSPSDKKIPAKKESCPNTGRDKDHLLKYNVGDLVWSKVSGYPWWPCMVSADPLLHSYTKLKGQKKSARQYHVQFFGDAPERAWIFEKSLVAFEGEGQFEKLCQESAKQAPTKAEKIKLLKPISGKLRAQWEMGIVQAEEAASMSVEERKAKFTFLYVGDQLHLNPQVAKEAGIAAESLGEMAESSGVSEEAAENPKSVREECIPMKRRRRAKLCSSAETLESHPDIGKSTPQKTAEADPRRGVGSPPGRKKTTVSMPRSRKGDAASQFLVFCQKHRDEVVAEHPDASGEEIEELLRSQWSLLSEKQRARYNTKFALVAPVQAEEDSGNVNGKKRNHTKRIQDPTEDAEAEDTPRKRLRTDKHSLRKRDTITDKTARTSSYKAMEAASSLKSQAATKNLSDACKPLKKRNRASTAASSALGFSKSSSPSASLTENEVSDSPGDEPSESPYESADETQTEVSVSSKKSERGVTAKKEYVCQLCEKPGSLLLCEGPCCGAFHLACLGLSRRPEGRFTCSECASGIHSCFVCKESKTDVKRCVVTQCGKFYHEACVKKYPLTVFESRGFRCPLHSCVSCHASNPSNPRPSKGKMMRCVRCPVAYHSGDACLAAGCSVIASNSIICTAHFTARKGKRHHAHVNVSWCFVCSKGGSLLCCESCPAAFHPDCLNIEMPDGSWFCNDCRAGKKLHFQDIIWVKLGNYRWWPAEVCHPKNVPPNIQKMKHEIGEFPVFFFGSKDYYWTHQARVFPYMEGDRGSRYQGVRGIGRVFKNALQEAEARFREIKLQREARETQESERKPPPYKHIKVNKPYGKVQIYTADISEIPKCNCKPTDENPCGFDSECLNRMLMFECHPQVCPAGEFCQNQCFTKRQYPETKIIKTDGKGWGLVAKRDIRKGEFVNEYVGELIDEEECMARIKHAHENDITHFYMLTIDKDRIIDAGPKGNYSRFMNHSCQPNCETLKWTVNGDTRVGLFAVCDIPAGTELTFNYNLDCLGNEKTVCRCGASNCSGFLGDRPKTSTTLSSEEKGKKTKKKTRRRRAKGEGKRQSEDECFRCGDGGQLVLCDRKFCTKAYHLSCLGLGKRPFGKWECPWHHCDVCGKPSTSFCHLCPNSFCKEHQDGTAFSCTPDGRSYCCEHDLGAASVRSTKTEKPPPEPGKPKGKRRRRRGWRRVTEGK

Caspase-7 = Caspase-7 (Homo sapiens, UniProt P55210); assay: caspase-7 enzyme inhibition, selectivity check – biochemical, DEVD-R110 fluorescence, cherry-pick, selectivity assay for caspase-6 inhibitor project, dose response (AID 743295); format: functional
[11] = IC50 of insulin release inhibition, rat insulinoma INS-1E line, 5 mM glucose, cell-based (AID 1117331); format: functional
[12] = glucagon-like peptide-1 release potency in STC-1, concentration-response, half-maximal inhibitory concentration in the STC-1 line (AID 1117345); format: functional, cell-based
[13] = Potency on glucagon-like peptide 1 release, dose-response in NCI-H716 cell line, half maximal inhibitory concentration (AID 1117344); format: functional, cell-based
[14] = Trypanosoma cruzi growth suppression in host cells – NIH3T3 host cells, beta-gal luminescence, confirmation (AID 2044); format: functional, cell-based;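 further: intracellular parasites grown in NIH/3T3 mouse fibroblasts as host cells; luminescent beta-galactosidase reporter signal from transgenic T. cruzi replicating inside host cells; inhibitors lower the luminescence signal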
[15] = NIH3T3 cell viability loss – ATP luminescence, mouse fibroblasts, counter-screen, dose response (AID 2010); format: functional, cell-based;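 further: cells exposed to compound for about 90 hours before reading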
[16] = target: NAD-dependent protein deacylase sirtuin-5, mitochondrial (Homo sapiens, UniProt Q9NXA8); assay: sirtuin-5 deacylation blockers, concentration series – biochemical, fluorescence imaging, cherry-pick, set 5, dose response (AID 720591);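 further: desuccinylation of succinyl peptide AMC substrate read as fluorescence after trypsin release; potency of inhibitors that lower fluorescence and may act on trypsin instead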
Chain of NAD-dependent protein deacylase sirtuin-5, mitochondrial (Q9NXA8 whole entry): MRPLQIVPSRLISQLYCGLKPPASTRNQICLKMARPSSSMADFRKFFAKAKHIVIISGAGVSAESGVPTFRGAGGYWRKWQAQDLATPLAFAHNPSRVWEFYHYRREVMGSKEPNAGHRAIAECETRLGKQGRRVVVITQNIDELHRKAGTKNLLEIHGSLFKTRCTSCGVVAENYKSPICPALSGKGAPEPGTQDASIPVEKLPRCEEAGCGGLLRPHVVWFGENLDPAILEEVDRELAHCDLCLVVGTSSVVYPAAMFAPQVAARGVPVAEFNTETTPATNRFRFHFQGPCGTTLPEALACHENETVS

Chain of Caspase-6 (P55212 24-179 limits assumed): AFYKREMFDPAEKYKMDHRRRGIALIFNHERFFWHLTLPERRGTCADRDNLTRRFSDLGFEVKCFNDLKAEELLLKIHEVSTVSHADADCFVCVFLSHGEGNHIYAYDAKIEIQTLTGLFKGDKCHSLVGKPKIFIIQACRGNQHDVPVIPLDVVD
Chain of Caspase-6 (P55212 194-293 limits assumed): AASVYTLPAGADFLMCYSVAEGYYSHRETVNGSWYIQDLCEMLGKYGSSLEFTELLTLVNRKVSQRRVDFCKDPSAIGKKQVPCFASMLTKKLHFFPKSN
Chain of RNA-editing ligase 1, mitochondrial (P86926 whole entry): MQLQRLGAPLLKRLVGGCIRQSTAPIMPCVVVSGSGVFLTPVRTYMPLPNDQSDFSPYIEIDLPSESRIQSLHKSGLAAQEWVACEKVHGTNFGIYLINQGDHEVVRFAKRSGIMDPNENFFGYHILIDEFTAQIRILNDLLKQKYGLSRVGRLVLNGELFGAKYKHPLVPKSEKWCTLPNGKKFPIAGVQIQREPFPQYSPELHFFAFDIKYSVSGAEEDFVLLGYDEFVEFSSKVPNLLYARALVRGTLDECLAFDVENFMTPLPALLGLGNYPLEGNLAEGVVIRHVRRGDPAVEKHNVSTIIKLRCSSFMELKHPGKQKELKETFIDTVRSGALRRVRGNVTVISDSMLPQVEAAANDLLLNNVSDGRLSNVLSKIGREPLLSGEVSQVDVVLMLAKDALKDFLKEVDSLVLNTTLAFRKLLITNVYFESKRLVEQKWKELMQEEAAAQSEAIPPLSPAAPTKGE
Chain of Caspase-7 (P55210 24-198 limits assumed): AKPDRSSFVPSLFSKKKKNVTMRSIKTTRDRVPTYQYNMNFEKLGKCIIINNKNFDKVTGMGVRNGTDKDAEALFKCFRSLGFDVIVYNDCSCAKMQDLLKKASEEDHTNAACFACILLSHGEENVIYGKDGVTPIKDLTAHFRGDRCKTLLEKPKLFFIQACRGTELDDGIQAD
Chain of Caspase-7 (P55210 207-303 limits assumed): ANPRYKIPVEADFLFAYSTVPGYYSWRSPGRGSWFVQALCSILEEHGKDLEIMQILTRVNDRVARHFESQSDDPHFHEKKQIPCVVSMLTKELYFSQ

In the case of `Nc1c(C(=O)NC2CCCC2)c2nc3ccccc3nc2n1CC1CCCO1` (centres undefined), the EC50 [1] is reported as 14.4 µM (active), the EC50 [2] is reported as 13.2 µM (active) and the IC50 [3] is reported as > 20 µM (inactive). The IC50 [4] was 21.1 µM (inactive).

For `Cc1ccc(-c2nn(-c3ccccc3)cc2C(=O)Nc2nccs2)cc1`, the IC50 [5] was > 74.4 µM (inactive).

With `Cc1cccc(S(=O)(=O)N2CCCCN3[C@@H](CO)[C@@H](c4ccc(-c5ccccc5)cc4)[C@@H]3C2)c1` the AC50 [6] was 1.26 µM (active) and the AC50 [7] was 19.8 µM (active).

For `COc1ccc(CCN(C)c2c3ccccc3nc3ccccc23)cc1OC`, the IC50 [8] was 4.5 µM (active).

With `COc1cc(NCCCCC(C)N)c2nccc(C)c2c1` (centres undefined) the IC50 (Protein skinhead-1) was > 100 µM (inactive), the AC50 [9] was 5.43 µM (active) and the AC50 (Caspase-6) was 4.77 µM (active). The AC50 [10] was 2.52 µM (active) and the AC50 (Caspase-7) was 24.9 µM (active).

With `Cn1cc([S+](C)[O-])c(=O)c2ccc(F)cc21` (centres undefined) [FLOSEQUINAN] the IC50 [11] was > 33.3 µM (inactive), the IC50 [12] was > 40 µM (inactive) and the IC50 [13] was > 40 µM (inactive).

With `CN1CCN(C(=O)COc2ccc(N(C)S(=O)(=O)c3ccc(F)cc3)cc2)CC1` the EC50 [14] was 0.346 µM (active), the EC50 [15] was > 60 µM (not active) and the AC50 [16] was > 30 µM (inactive).
